Experimental data: patent publication US10391109B2, “Use of zoledronic acid to prepare drug treating fatty liver disease” (NANJING UNIVERSITY, priority 2015, dated 2019)
Where “and” joins values, the source holds several entries; their conditions need not be identical. Equal values may be shown once.

What was measured:
[1] = system: hepatic lipid accumulation; assay: Oil Red staining of liver cryosections, ob/ob mice; format: in vivo; conditions: various dosages
Experimental: An appropriate amount of the right lobe of liver was taken at the same site for laboratory mice in each group, fixed in paraformaldehyde for 2 h, dehyrdated with 30% sucrose for 8-12 h, and embedded in OCT. It was stored in a refrigerator at −70° C. It was sectioned using a Cryostat Microtome at a section thickness of 15 μm.
The cryosections were slightly dried at room temperature, slightly washed with 60% ethanol, stained in an Oil Red 0 staining solution (60% Oil Red 0 stock plus 40% distilled water) for 10-15 min, differentiated in 60% ethanol, washed, subjected to nuclear staining with hematoxylin for 1 min, washed for 1 min, suck dried, and mounted with glycerin.
(§1) Further, the liver structure was shown by H&E staining and the lipid accumulation was shown by Oil Red staining. Injection of zoledronic acid can effectively reduce hepatic lipid accumulation in hereditary obese mice. […] In addition, the use of the zoledronic acid preparation can effectively reduce the body weight of hereditary obese mice, effectively reduce accumulation of epididymal fat pads in mice, and modulate the triglyceride content in body, achieving an effective lipid reducing, lipid lowering, and slimming effect.

[2] = system: blood alanine transaminase (ALT); assay: Assay for blood ALT level, C57BL/6J mice; format: in vivo; conditions: 50 μg/kg
Experimental: (§2) After the mice were anaesthetized, blood was collected from the eye socket veins, left at room temperature for 30 min, and centrifuged upon serum precipitation. 10 μl serum was taken for ALT and AST assays with the kit.
(§3) Similar to Example 1, according to the forgoing general materials and methods, the mice in the HFD group were first administered with zoledronic acid and placebo. The blood alanine transaminase (ALT) and aspartate transaminase (AST) levels in mice after administration were assayed.
(§4) The HFD group is high fat diet group, the RC group is regular chow group, PBS is placebo, ZOL is zoledronic acid, and the dosage is 50 μg/kg.

[3] = Body weight, liver weight and epididymal fat pad weight in ob/ob mice after administration; format: in vivo
Experimental: In order to further verify the lipid reducing effect of zoledronic acid, the experiments of the present invention were carried out in ob/ob mice of hereditary obese mice models with severe non-alcoholic fatty liver mainly characterized by lipid accumulation. A total of thirty 10-week-old ob/ob mice were selected, randomly assigned to 3 groups of 10 mice, and housed with regular chow (containing 4% fat). Ob/ob mice were mutant mice mainly manifested as obesity and related metabolic syndrome. […] Ob/ob mice were administered with zoledronic acid and control placebo. The resulting changes of physiological indicators in mice were observed and different body weights and physiological indicators were recorded.

hepatic lipid content = assay: Quantitative analysis of hepatic lipid content in ob/ob mice (Computer Tomography); format: in vivo
blood ALT = assay: Assay for blood ALT level, ob/ob mice; format: in vivo
Experimental: as §2
(§5) Similar to Example 1, according to the forgoing general materials and methods, ob/ob mice were first administered with zoledronic acid preparation and placebo at various dosages. The blood ALT and AST levels in ob/ob mice after treatment were assayed.

blood AST = assay: Assay for blood AST level, ob/ob mice; format: in vivo
Experimental: as §2, §5

liver triglyceride [4] = assay: Measurement of TG in liver tissue, C57BL/6J mice (foodborne non-alcoholic fatty liver); format: in vivo; conditions: 50 μg/kg tail vein injection once every two days
Experimental: (§6) About 50 mg of the right lobe of liver in mice was taken, with an accurate weight recorded. It was washed with PBS, placed in 1 ml of a lysis solution and mechanically homogenized. The lysed tissue homogenate was divided into two portions. One portion, 500 μl, was placed in a metal bath at 70° C., heated for 10 min, and centrifuged for 5 min at 2,000×rpm. 1-10 μl was taken for a tissue TG assay with the kit. Another 500 μl was used for a protein concentration assay using the BCA method.
(§7) According to the forgoing general materials and methods, the mice in the HFD group were first administered with zoledronic acid and placebo. In this example, zoledronic acid was administered mainly by tail vein injection. The primary site of action of the drug was liver. The injection was performed once every two days. The dosage was 50 μg/kg of zoledronic acid. Tissue triglyceride level assay and H&E staining were performed for mice after administration.
as §4

[5] = system: hepatic macrovesicular steatosis; assay: H&E staining of liver paraffin sections, high fat diet mice; format: in vivo, C57BL/6J mice; conditions: 50 μg/kg injection
Experimental: (§8) An appropriate amount of the right lobe of liver tissue was taken, fixed in 4% paraformaldehyde for 24-48 h, dehyrdated with graded ethanols, cleared with xylene, infiltrated with wax, embedded in paraffin, and sectioned at a thickness of 5 μm.
(§9) The sections were de-waxed in xylene for 10 min and 5 min respectively, and then reconstituted in graded ethanol solutions. The sections were subjected to hematoxylin staining for 4 min, and then slightly washed with distilled water. The sections were blued in 0.25% NH3.H2O for 30 s, and then washed with distilled water. The sections were dehydrated with graded ethanols to 95% ethanol, stained for 2-3 s in 0.5% eosin, dehydrated in 100% ethanol, and soaked in xylene for 2 min. Finally, the sections were mounted in Rhamsan gum.
as §7

[6] = Body weight, liver weight and epididymal fat pad weight in C57BL/6J mice on regular chow or high fat diet after administration; format: in vivo; conditions: 50 μg/kg
Description: The present inventors first used model mice with foodborne non-alcoholic fatty liver, that is, high-fat diet (containing 60% fat) was used for inducing C57BL/6J mice for 12 weeks to generate fatty liver. It was found from the experimental assay that feeding of high fat diet could result in hepatic fat accumulation and degeneration in mice.
A total of forty 8-week-old C57BL/6J mice were selected, and randomly assigned to 4 groups of 10 mice. The mice were weighted respectively, fed with regular chow (containing 4% fat) and high fat diet (containing 60% fat), and housed for 12 weeks. The mice were weekly weighted and recorded, and curves were plotted. After 12 weeks, the mice with fatty liver fed with regular chow and high fat diet were administered with zoledronic acid and placebo so as to explore the function for relieving fat accumulation. Meanwhile, the resulting changes of physiological indicators for mice were observed, and different body weights and physiological indicators were recorded.
The RC group is regular chow group, the HFD group is high fat diet group, PBS is placebo, ZOL is zoledronic acid, and the dosage is 50 μg/kg.

[7] = system: hepatic lipid accumulation; assay: H&E staining of liver paraffin sections, ob/ob mice; format: in vivo; conditions: various dosages
Experimental: as §8, §9, §1

liver triglyceride [8] = assay: Measurement of TG in liver tissue, ob/ob mice (hereditary non-alcoholic fatty liver); format: in vivo
Experimental: as §6

[9] = system: aspartate transaminase (AST); assay: Assay for blood AST level, C57BL/6J mice; format: in vivo; conditions: 50 μg/kg
Experimental: as §2, §3, §4

In the case of O=P(O)(O)C(O)(Cn1ccnc1)P(=O)(O)O [ZOL, 1-hydroxy-2-(imidazol-1-yl)-ethylidene-1,1-bisphosphonic acid], the “Liver histology, Oil Red staining (FIG. 8)” value [1] is reported as “significant decrease in hepatic lipid accumulation”, the “ALT IU/L” value ([2]; HFD group) is reported as 62.8 ± 14.08 IU/L and the “Average decline of ALT vs PBS” value ([2]; HFD group) is reported as 45.2% and 44.7%. The “ALT IU/L” value ([2]; RC group) was 39.2 ± 12.09 IU/L, the “Average decline of ALT vs PBS” value ([2]; RC group) was “no significant changes” and the Average body weight/g ([3]; ZOL50 (50 μg/kg)) was 50.56 ± 2.82 g. The “Average decline of average body weight vs PBS” value ([3]; ZOL50 (50 μg/kg)) was 7%, the “Average decline of average epididymal fat pad weight vs PBS” value ([3]; ZOL50 (50 μg/kg)) was 39% and the “Average decline of average liver weight vs PBS” value ([3]; ZOL50 (50 μg/kg)) was 17%. For the same compound, the “Average epididymal fat pad weight/g” value ([3]; ZOL50 (50 μg/kg)) was 3.628 ± 0.27 g, the Average liver weight/g ([3]; ZOL50 (50 μg/kg)) was 3.47 ± 0.58 g and the Average body weight/g ([3]; ZOL200 (200 μg/kg)) was 45.94 ± 5.16 g. The “Average decline of average body weight vs PBS” value ([3]; ZOL200 (200 μg/kg)) was 15%, the “Average decline of average epididymal fat pad weight vs PBS” value ([3]; ZOL200 (200 μg/kg)) was 4% and the “Average decline of average liver weight vs PBS” value ([3]; ZOL200 (200 μg/kg)) was 46%. The “Average epididymal fat pad weight/g” value ([3]; ZOL200 (200 μg/kg)) was 3.79 ± 0.30 g, the Average liver weight/g ([3]; ZOL200 (200 μg/kg)) was 2.26 ± 0.21 g and the “Average decline of lipid content vs PBS” value (hepatic lipid content; ZOL50 (50 μg/kg)) was 20.4%. The Lipid content (hepatic lipid content; ZOL50 (50 μg/kg)) was 592.00 ± 201.08 mg/mL, the “Average decline of lipid content vs PBS” value (hepatic lipid content; ZOL200 (200 μg/kg)) was 34% and the Lipid content (hepatic lipid content; ZOL200 (200 μg/kg)) was 490.22 ± 211.95 mg/mL. The “ALT IU/L” value (blood ALT; ZOL50 (50 μg/kg)) was 281.6 ± 142.59 IU/L, the “Average decline of ALT vs PBS” value (blood ALT; ZOL50 (50 μg/kg)) was 42.5% and the “ALT IU/L” value (blood ALT; ZOL200 (200 μg/kg)) was 277.4 ± 188.65 IU/L. The “Average decline of ALT vs PBS” value (blood ALT; ZOL200 (200 μg/kg)) was 43.4%, the “AST IU/L” value (blood AST; ZOL50 (50 μg/kg)) was 240.25 ± 70.54 IU/L and the “Average decline of AST vs PBS” value (blood AST; ZOL50 (50 μg/kg)) was 30.4%. The “AST IU/L” value (blood AST; ZOL200 (200 μg/kg)) was 269.75 ± 71.53 IU/L, the “Average decline of AST vs PBS” value (blood AST; ZOL200 (200 μg/kg)) was 21.9% and the “Average decline of liver triglyceride vs PBS” value (liver triglyceride [4]; HFD group) was 44.9%. The Liver triglyceride (liver triglyceride [4]; HFD group) was 38.18 ± 10.27 mg/g, the “Average decline of liver triglyceride vs PBS” value (liver triglyceride [4]; RC group) was 12.5% and the Liver triglyceride (liver triglyceride [4]; RC group) was 14.33 ± 6.39 mg/g. For the same compound, the “Liver histology, H&E staining (FIG. 3)” value [5] was “significant remission in hepatic macrovesicular steatosis”, the Average body weight/g ([6]; HFD group (high fat diet)) was 36.73 ± 3.74 g and the “Average decline of average body weight vs PBS” value ([6]; HFD group (high fat diet)) was 16%. The “Average decline of average epididymal fat pad weight vs PBS” value ([6]; HFD group (high fat diet)) was 30%, the “Average decline of average liver weight vs PBS” value ([6]; HFD group (high fat diet)) was 29% and the “Average epididymal fat pad weight/g” value ([6]; HFD group (high fat diet)) was 2.33 ± 0.62 g. The Average liver weight/g ([6]; HFD group (high fat diet)) was 1.41 ± 0.17 g, the Average body weight/g ([6]; RC group (regular chow)) was 26.72 ± 1.69 g and the “Average decline of average body weight vs PBS” value ([6]; RC group (regular chow)) was 13%. The “Average decline of average epididymal fat pad weight vs PBS” value ([6]; RC group (regular chow)) was 39%, the “Average decline of average liver weight vs PBS” value ([6]; RC group (regular chow)) was 17% and the “Average epididymal fat pad weight/g” value ([6]; RC group (regular chow)) was 0.46 ± 0.11 g. For the same compound, the Average liver weight/g ([6]; RC group (regular chow)) was 1.28 ± 0.08 g, the “Liver histology, H&E staining (FIG. 7)” value [7] was “significant decrease in hepatic lipid accumulation” and the “Average decline of liver triglyceride vs PBS” value (liver triglyceride [8]; ZOL50 (50 μg/kg)) was “No significant change”. The Liver triglyceride (liver triglyceride [8]; ZOL50 (50 μg/kg)) was 140.88 ± 44.29 mg/g, the “Average decline of liver triglyceride vs PBS” value (liver triglyceride [8]; ZOL200 (200 μg/kg)) was 34% and the Liver triglyceride (liver triglyceride [8]; ZOL200 (200 μg/kg)) was 98.49 ± 40.08 mg/g. For the same compound, the “AST IU/L” value ([9]; HFD group) was 76 ± 31.42 IU/L, the “Average decline of AST vs PBS” value ([9]; HFD group) was 44.7% and 45.2% and the “AST IU/L” value ([9]; RC group) was 52.4 ± 21.20 IU/L. For the same compound, the “Average decline of AST vs PBS” value ([9]; RC group) was “no significant changes”.
